Measurements as given in ChEMBL document CHEMBL1201861, “Genomics of Drug Sensitity in Cancer screening data, Wellcome Trust Sanger Institute”.

Assays:
Experiment in all cases: cells
Type in all cases: functional, cell-based
Settings in all cases: Homo sapiens
LS-1034 = test system: LS-1034
Description: SANGER: Inhibition of human LS-1034 cell growth in a cell viability assay.

SW982 = test system: SW982;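 also: growth inhibition of SW982 cells, read out with a cell viability assay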
Description: SANGER: Inhibition of human SW982 cell growth in a cell viability assay.

RPMI-8226 = test system: RPMI-8226
Description: SANGER: Inhibition of human RPMI-8226 cell growth in a cell viability assay.

SF-268 = test system: SF-268;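 also: growth inhibition of SF-268 cells determined with a cell viability assay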
Description: SANGER: Inhibition of human SF268 cell growth in a cell viability assay.

KINGS-1 = test system: KINGS-1;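 also: cell viability assay measuring suppression of KINGS-1 cell growth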
Description: SANGER: Inhibition of human KINGS-1 cell growth in a cell viability assay.

JVM-2 = test system: JVM-2;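 also: growth inhibition of JVM-2 cells determined by a cell viability assay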
Description: SANGER: Inhibition of human JVM-2 cell growth in a cell viability assay.

U-266 = test system: U-266
Description: SANGER: Inhibition of human U-266 cell growth in a cell viability assay.

EW-1 = test system: EW-1;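 also: growth inhibition of the human EW-1 cell line, read out by a cell viability assay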
Description: SANGER: Inhibition of human EW-1 cell growth in a cell viability assay.

NCI-H226 = test system: NCI-H226;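 also: cell viability read-out used to gauge growth inhibition of the cells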
Description: SANGER: Inhibition of human NCI-H226 cell growth in a cell viability assay.

A4-Fuk = test system: A4-Fuk;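 also: growth inhibition of A4-Fuk cells, read out by a cell viability assay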
Description: SANGER: Inhibition of human A4-Fuk cell growth in a cell viability assay.

TE-5 = test system: TE-5;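 also: inhibition of cell growth, read out by a cell viability assay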
Description: SANGER: Inhibition of human TE-5 cell growth in a cell viability assay.

SCH = test system: SCH;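 also: growth inhibition of human SCH cells, read out in a cell viability assay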
Description: SANGER: Inhibition of human SCH cell growth in a cell viability assay.

LOX IMVI = test system: LOX IMVI
Description: SANGER: Inhibition of human LOXIMVI cell growth in a cell viability assay.

NTERA-2-cl-D1 = test system: NTERA-2-cl-D1;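 also: inhibition of cell growth, measured with a cell viability assay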
Description: SANGER: Inhibition of human NTERA-S-cl-D1 cell growth in a cell viability assay.

SK-PN-DW = test system: SK-PN-DW;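 also: growth inhibition measured with a viability assay on these cells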
Description: SANGER: Inhibition of human SK-PN-DW cell growth in a cell viability assay.

SW872 = test system: SW872;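 also: growth inhibition of SW872 cells, read out by a viability assay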
Description: SANGER: Inhibition of human SW872 cell growth in a cell viability assay.

NCI-H1648 = test system: NCI-H1648;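 also: cell viability assay measuring inhibition of NCI-H1648 cell growth, from the Sanger screening data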
Description: SANGER: Inhibition of human NCI-H1648 cell growth in a cell viability assay.

KNS-42 = test system: KNS-42;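 also: growth inhibition of KNS-42 cells, read out with a cell viability assay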
Description: SANGER: Inhibition of human KNS-42 cell growth in a cell viability assay.

no-11 = test system: no-11;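 also: growth inhibition of human NO-11 cells, read out with a cell viability assay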
Description: SANGER: Inhibition of human no-11 cell growth in a cell viability assay.

LAN-6 = test system: LAN-6;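 also: growth inhibition of LAN-6 cells, determined with a cell viability assay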
Description: SANGER: Inhibition of human LAN-6 cell growth in a cell viability assay.

DU-4475 = test system: DU-4475
Description: SANGER: Inhibition of human DU-4475 cell growth in a cell viability assay.

SJSA-1 = test system: SJSA-1;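 also: growth inhibition of human SJSA-1 cells, read out through a cell viability measurement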
Description: SANGER: Inhibition of human SJSA-1 cell growth in a cell viability assay.

ES1 = test system: ES1;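 also: growth inhibition of ES1 cells, read out with a cell viability assay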
Description: SANGER: Inhibition of human ES1 cell growth in a cell viability assay.

8-MG-BA = test system: 8-MG-BA;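 also: growth inhibition of 8-MG-BA cells, read out with a cell viability assay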
Description: SANGER: Inhibition of human 8-MG-BA cell growth in a cell viability assay.

J-RT3-T3-5 = test system: J-RT3-T3-5;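 also: cell viability assay measuring growth inhibition of human J-RT3-T3-5 cells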
Description: SANGER: Inhibition of human J-RT3-T3-5 cell growth in a cell viability assay.

SK-NEP-1 = test system: SK-NEP-1;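 also: growth inhibition of human SK-NEP-1 cells, read out by a cell viability assay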
Description: SANGER: Inhibition of human SK-NEP-1 cell growth in a cell viability assay.

HT = test system: HT
Description: SANGER: Inhibition of human HT cell growth in a cell viability assay.

CTB-1 = test system: CTB-1
Description: SANGER: Inhibition of human CTB-1 cell growth in a cell viability assay.

NCI-H1838 = test system: NCI-H1838;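 also: growth inhibition of NCI-H1838 cells, determined with a cell viability readout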
Description: SANGER: Inhibition of human NCI-H1838 cell growth in a cell viability assay.

KS-1 = test system: KS-1;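 also: growth inhibition of KS-1 cells, read out with a cell viability assay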
Description: SANGER: Inhibition of human KS-1 cell growth in a cell viability assay.

NMC-G1 = test system: NMC-G1;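 also: growth inhibition of the NMC-G1 cell line, measured with a cell viability read-out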
Description: SANGER: Inhibition of human NMC-G1 cell growth in a cell viability assay.

NCI-H69 = test system: NCI-H69;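 also: growth inhibition of the cell line, read out with a cell viability assay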
Description: SANGER: Inhibition of human NCI-H69 cell growth in a cell viability assay.

SK-MEL-1 = test system: SK-MEL-1;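 also: growth inhibition of human SK-MEL-1 cells, read out by a cell viability assay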
Description: SANGER: Inhibition of human SK-MEL-1 cell growth in a cell viability assay.

MFH-ino = test system: MFH-ino;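 also: growth inhibition of human MFH-ino cells, read out by a cell viability assay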
Description: SANGER: Inhibition of human MFH-ino cell growth in a cell viability assay.

GOTO = test system: GOTO;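 also: growth inhibition of GOTO cells, read out by a cell viability assay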
Description: SANGER: Inhibition of human GOTO cell growth in a cell viability assay.

TE-10 = test system: TE-10;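 also: growth inhibition of TE-10 cells, measured by a cell viability assay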
Description: SANGER: Inhibition of human TE-10 cell growth in a cell viability assay.

697 = test system: 697
Description: SANGER: Inhibition of human 697 cell growth in a cell viability assay.

GI-1 = test system: GI-1;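 also: growth inhibition of human GI-1 cells, measured with a cell viability readout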
Description: SANGER: Inhibition of human GI-1 cell growth in a cell viability assay.

ACN = test system: ACN;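 also: growth inhibition of the human ACN cell line, read out via cell viability testing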
Description: SANGER: Inhibition of human ACN cell growth in a cell viability assay.

AM-38 = test system: AM-38;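 also: growth inhibition of AM-38 cells of human origin, read out by a cell viability assay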
Description: SANGER: Inhibition of human AM-38 cell growth in a cell viability assay.

K5 = test system: K5
Description: SANGER: Inhibition of human K5 cell growth in a cell viability assay.

NCI-H1581 = test system: NCI-H1581;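 also: cell growth inhibition read out by a viability assay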
Description: SANGER: Inhibition of human NCI-H1581 cell growth in a cell viability assay.

OMC-1 = test system: OMC-1;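 also: growth inhibition of the OMC-1 cell line, measured by a cell viability assay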
Description: SANGER: Inhibition of human OMC-1 cell growth in a cell viability assay.

NCI-H209 = test system: NCI-H209;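 also: growth inhibition of human NCI-H209 cells, measured by a cell viability assay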
Description: SANGER: Inhibition of human NCI-H209 cell growth in a cell viability assay.

LC-2-ad = test system: LC-2-ad;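 also: growth inhibition of human LC-2-ad cells, read out with a cell viability assay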
Description: SANGER: Inhibition of human LC-2-ad cell growth in a cell viability assay.

CGTH-W-1 = test system: CGTH-W-1;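 also: growth inhibition of human CGTH-W-1 cells measured by cell viability assay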
Description: SANGER: Inhibition of human CGTH-W-1 cell growth in a cell viability assay.

VA-ES-BJ = test system: VA-ES-BJ;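 also: growth inhibition of the VA-ES-BJ cell line, read out by a cell viability assay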
Description: SANGER: Inhibition of human VA-ES-BJ cell growth in a cell viability assay.

MOLT-16 = test system: MOLT-16;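 also: growth inhibition of human MOLT-16 cells, read out with a cell viability assay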
Description: SANGER: Inhibition of human MOLT-16 cell growth in a cell viability assay.

K562 = test system: K562
Description: SANGER: Inhibition of human K-562 cell growth in a cell viability assay.

ATN-1 = test system: ATN-1;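 also: growth inhibition of human ATN-1 cells, read out with a cell viability assay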
Description: SANGER: Inhibition of human ATN-1 cell growth in a cell viability assay.

ONS-76 = test system: ONS-76;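 also: growth inhibition of human ONS-76 cells, read out with a cell viability assay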
Description: SANGER: Inhibition of human ONS-76 cell growth in a cell viability assay.

MMAC-SF = test system: MMAC-SF;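 also: growth inhibition of human MMAC-SF cells, read out with a cell viability assay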
Description: SANGER: Inhibition of human MMAC-SF cell growth in a cell viability assay.

A101D = test system: A101D;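 also: growth inhibition of the cell line, measured with a viability assay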
Description: SANGER: Inhibition of human A101D cell growth in a cell viability assay.

CCRF-CEM = test system: CCRF-CEM;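 also: inhibition of CCRF-CEM cell growth, measured by a cell viability assay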
Description: SANGER: Inhibition of human CCRF-CEM cell growth in a cell viability assay.

TGBC1TKB = test system: TGBC1TKB;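 also: growth inhibition of TGBC1TKB cells, read out by a cell viability assay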
Description: SANGER: Inhibition of human TGBC1TKB cell growth in a cell viability assay.

KM-H2 = test system: KM-H2;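 also: growth inhibition of KM-H2 cells, read out by a cell viability assay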
Description: SANGER: Inhibition of human KM-H2 cell growth in a cell viability assay.

MEG-01 = test system: MEG-01;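 also: growth inhibition of MEG-01 cells, read out by a cell viability assay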
Description: SANGER: Inhibition of human MEG-01 cell growth in a cell viability assay.

EC-GI-10 = test system: EC-GI-10
Description: SANGER: Inhibition of human EC-GI-10 cell growth in a cell viability assay.

COLO-824 = test system: COLO-824
Description: SANGER: Inhibition of human COLO-824 cell growth in a cell viability assay.

MN-60 = test system: MN-60;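 also: growth inhibition of the MN-60 cell line, determined with a cell viability assay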
Description: SANGER: Inhibition of human MN-60 cell growth in a cell viability assay.

BE-13 = test system: BE-13;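 also: growth inhibition of human BE-13 cells, measured with a cell viability assay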
Description: SANGER: Inhibition of human BE-13 cell growth in a cell viability assay.

EW-16 = test system: EW-16;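 also: growth inhibition of human EW-16 cells, read out as cell viability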
Description: SANGER: Inhibition of human EW-16 cell growth in a cell viability assay.

SNU-C2B = test system: SNU-C2B
Description: SANGER: Inhibition of human SNU-C2B cell growth in a cell viability assay.

KALS-1 = test system: KALS-1
Description: SANGER: Inhibition of human KALS-1 cell growth in a cell viability assay.

KURAMOCHI = test system: KURAMOCHI
Description: SANGER: Inhibition of human KURAMOCHI cell growth in a cell viability assay.

KLE = test system: KLE
Description: SANGER: Inhibition of human KLE cell growth in a cell viability assay.

SMILES: CCNc1cc(N[C@H]2CC[C@@H](O)CC2)nc(Nc2ccc3c(ccn3Cc3ccccc3)c2)n1
- IC50 (LS-1034): > 5.12 µM
- IC50 (SW982): > 5.12 µM
- IC50 (RPMI-8226): > 5.12 µM
- IC50 (SF-268): > 5.12 µM
- IC50 (KINGS-1): > 5.12 µM
- IC50 (JVM-2): > 5.12 µM
- IC50 (U-266): > 5.12 µM
- IC50 (EW-1): > 5.12 µM
- IC50 (NCI-H226): > 5.12 µM
- IC50 (A4-Fuk): > 5.12 µM
- IC50 (TE-5): > 5.12 µM
- IC50 (SCH): > 5.12 µM
- IC50 (LOX IMVI): > 5.12 µM
- IC50 (NTERA-2-cl-D1): > 5.12 µM
- IC50 (SK-PN-DW): > 5.12 µM
- IC50 (SW872): > 5.12 µM
- IC50 (NCI-H1648): > 5.12 µM
- IC50 (KNS-42): > 5.12 µM
- IC50 (no-11): > 5.12 µM
- IC50 (LAN-6): > 5.12 µM
- IC50 (DU-4475): > 5.12 µM
- IC50 (SJSA-1): > 5.12 µM
- IC50 (ES1): > 5.12 µM
- IC50 (8-MG-BA): > 5.12 µM
- IC50 (J-RT3-T3-5): > 5.12 µM
- IC50 (SK-NEP-1): > 5.12 µM
- IC50 (HT): > 5.12 µM
- IC50 (CTB-1): > 5.12 µM
- IC50 (NCI-H1838): > 5.12 µM
- IC50 (KS-1): 4.3 µM
- IC50 (NMC-G1): > 5.12 µM
- IC50 (NCI-H69): > 5.12 µM
- IC50 (SK-MEL-1): > 5.12 µM
- IC50 (MFH-ino): > 5.12 µM
- IC50 (GOTO): > 5.12 µM
- IC50 (TE-10): 4.39 µM
- IC50 697: 4.17 µM
- IC50 (GI-1): 2.95 µM
- IC50 (ACN): > 5.12 µM
- IC50 (AM-38): > 5.12 µM
- IC50 (K5): > 5.12 µM
- IC50 (NCI-H1581): > 5.12 µM
- IC50 (OMC-1): > 5.12 µM
- IC50 (NCI-H209): > 5.12 µM
- IC50 (LC-2-ad): 0.702 µM
- IC50 (CGTH-W-1): > 5.12 µM
- IC50 (VA-ES-BJ): > 5.12 µM
- IC50 (MOLT-16): > 5.12 µM
- IC50 (K562): > 5.12 µM
- IC50 (ATN-1): > 5.12 µM
- IC50 (ONS-76): > 5.12 µM
- IC50 (MMAC-SF): > 5.12 µM
- IC50 (A101D): > 5.12 µM
- IC50 (CCRF-CEM): > 5.12 µM
- IC50 (TGBC1TKB): > 5.12 µM
- IC50 (KM-H2): > 5.12 µM
- IC50 (MEG-01): > 5.12 µM
- IC50 (EC-GI-10): > 5.12 µM
- IC50 (COLO-824): > 5.12 µM
- IC50 (MN-60): > 5.12 µM
- IC50 (BE-13): > 5.12 µM
- IC50 (EW-16): > 5.12 µM
- IC50 (SNU-C2B): > 5.12 µM
- IC50 (KALS-1): > 5.12 µM
- IC50 (KURAMOCHI): > 5.12 µM
- IC50 (KLE): > 5.12 µM

SMILES: COc1cc(C)c(Sc2cnc(NC(=O)c3ccc(CNC(C)C(C)(C)C)cc3)s2)cc1C(=O)N1CCN(C(C)=O)CC1 (configuration not stated)
- IC50 (LS-1034): 7.42 µM
- IC50 (SW982): 2.91 µM
- IC50 (RPMI-8226): > 10.2 µM
- IC50 (SF-268): > 10.2 µM
- IC50 (KINGS-1): > 10.2 µM
- IC50 (JVM-2): > 10.2 µM
- IC50 (U-266): > 10.2 µM
- IC50 (EW-1): 3.11 µM
- IC50 (NCI-H226): > 10.2 µM
- IC50 (A4-Fuk): 1.62 µM
- IC50 (TE-5): > 10.2 µM
- IC50 (SCH): > 10.2 µM
- IC50 (LOX IMVI): > 10.2 µM
- IC50 (NTERA-2-cl-D1): 8.79 µM
- IC50 (SK-PN-DW): 10.2 µM
- IC50 (SW872): > 10.2 µM
- IC50 (NCI-H1648): > 10.2 µM
- IC50 (KNS-42): > 10.2 µM
- IC50 (no-11): > 10.2 µM
- IC50 (LAN-6): 7.29 µM
- IC50 (DU-4475): > 10.2 µM
- IC50 (SJSA-1): 7.63 µM
- IC50 (ES1): 7.44 µM
- IC50 (8-MG-BA): > 10.2 µM
- IC50 (J-RT3-T3-5): > 10.2 µM
- IC50 (SK-NEP-1): > 10.2 µM
- IC50 (HT): > 10.2 µM
- IC50 (CTB-1): > 10.2 µM
- IC50 (NCI-H1838): > 10.2 µM
- IC50 (KS-1): 1.21 µM
- IC50 (NMC-G1): 7.16 µM
- IC50 (NCI-H69): > 10.2 µM
- IC50 (SK-MEL-1): > 10.2 µM
- IC50 (MFH-ino): 3.59 µM
- IC50 (GOTO): > 10.2 µM
- IC50 (TE-10): > 10.2 µM
- IC50 697: 6.66 µM
- IC50 (GI-1): > 10.2 µM
- IC50 (ACN): > 10.2 µM
- IC50 (AM-38): > 10.2 µM
- IC50 (K5): > 10.2 µM
- IC50 (NCI-H1581): > 10.2 µM
- IC50 (OMC-1): > 10.2 µM
- IC50 (NCI-H209): > 10.2 µM
- IC50 (LC-2-ad): 9.39 µM
- IC50 (CGTH-W-1): > 10.2 µM
- IC50 (VA-ES-BJ): > 10.2 µM
- IC50 (MOLT-16): 4.75 µM
- IC50 (K562): > 10.2 µM
- IC50 (ATN-1): 9.51 µM
- IC50 (ONS-76): > 10.2 µM
- IC50 (MMAC-SF): > 10.2 µM
- IC50 (A101D): 4.81 µM
- IC50 (CCRF-CEM): > 10.2 µM
- IC50 (TGBC1TKB): > 10.2 µM
- IC50 (KM-H2): > 10.2 µM
- IC50 (MEG-01): > 10.2 µM
- IC50 (EC-GI-10): > 10.2 µM
- IC50 (COLO-824): > 10.2 µM
- IC50 (MN-60): > 10.2 µM
- IC50 (BE-13): > 10.2 µM
- IC50 (EW-16): 1.72 µM
- IC50 (SNU-C2B): 4.64 µM
- IC50 (KALS-1): > 10.2 µM
- IC50 (KURAMOCHI): > 10.2 µM
- IC50 (KLE): > 10.2 µM
